Assay results as given in publication PMC8370248, “Key Metabolic Enzymes Involved in Remdesivir Activation in Human Lung Cells” (Antimicrobial Agents and Chemotherapy, 2021).
Like-named read-outs stand apart in the source and are kept apart here.

Experiments:
CES1 = tested on: CES1; parameters: method as in PMID 20801890, PMID 25870059; settings: published data ref 7, 9; cited from earlier work
HINT1 [1] = target: T1, HINT1 (Homo sapiens, UniProt P49773); assay: HINT1-catalyzed hydrolysis of RDV MetX, inhibition; type: biochemical
T1 construct: purchased Abcam (Cambridge, MA)
Method: Following protein precipitation and centrifugation, 150 μl of supernatants were dried down and reconstituted with 250 μl water. All samples were analyzed by LC-MS, and PAR values were used for quantification. Disappearance of the MetX substrate was monitored over the incubation time period. Three experiments were conducted with two replicates each experiment, and data are reported as averages from three experiments.
(§1) Data were analyzed using GraphPad Prism 8.0. IC50 values were calculated by nonlinear regression analysis using the following sigmoidal dose-response (variable slope) equation (four-parameter logistic equation). Y=100/[1+10^(logIC50−X)×HillSlope] where X is the log of the concentration of the test compound, and Y is the response. The IC50 values were calculated as an average of three or more independent experiments.

CES1b = target: T2, CES1b (Homo sapiens, UniProt P23141); assay: CES1b-catalyzed hydrolysis of 4-NPA, inhibition by inhibitors; type: biochemical
T2 construct: purchased Corning Incorporated (Corning, NY); host or cells: baculovirus-infected insect cells (microsomal fraction, Supersomes)
T2 sequence (P23141 18-567): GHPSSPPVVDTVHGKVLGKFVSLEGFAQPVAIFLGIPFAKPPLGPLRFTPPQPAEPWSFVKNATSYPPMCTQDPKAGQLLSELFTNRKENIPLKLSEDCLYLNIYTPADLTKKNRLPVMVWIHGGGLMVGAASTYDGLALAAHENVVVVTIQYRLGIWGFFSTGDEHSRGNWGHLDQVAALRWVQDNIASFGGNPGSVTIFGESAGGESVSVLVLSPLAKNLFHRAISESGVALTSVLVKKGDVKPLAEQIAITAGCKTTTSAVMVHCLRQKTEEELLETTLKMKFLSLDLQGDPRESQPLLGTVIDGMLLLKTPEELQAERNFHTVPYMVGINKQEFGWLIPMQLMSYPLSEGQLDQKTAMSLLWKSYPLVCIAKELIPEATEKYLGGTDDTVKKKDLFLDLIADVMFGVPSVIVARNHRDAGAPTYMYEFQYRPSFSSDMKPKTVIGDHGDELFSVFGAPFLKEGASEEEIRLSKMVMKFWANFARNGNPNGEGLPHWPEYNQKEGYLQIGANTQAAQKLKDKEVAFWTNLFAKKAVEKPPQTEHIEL
Method: (§2) Threefold dilutions of compounds were prepared in 100% DMSO. Compounds (100 μM to 0.005 μM), CES isozymes, and substrate 4-NPA were mixed in a 100-μl reaction volume consisting of 100 mM potassium phosphate buffer (pH 7.4) and 1% DMSO. […] The slopes of the progress curves were used to calculate reaction rates. Reaction rates were plotted as a function of inhibitor concentration, and the data were fit with a four-parameter logistic model using GraphPad Prism software (version 8; La Jolla, CA) to yield IC50 values.
as §1

CatA [2] = target: T3, CatA (Homo sapiens, UniProt P10619); assay: CatA-catalyzed hydrolysis of fluorogenic peptide substrate, inhibition; type: biochemical; parameters: purchased R&D Systems (Minneapolis, MN)
T3 sequence (P10619 29-326 limits assumed): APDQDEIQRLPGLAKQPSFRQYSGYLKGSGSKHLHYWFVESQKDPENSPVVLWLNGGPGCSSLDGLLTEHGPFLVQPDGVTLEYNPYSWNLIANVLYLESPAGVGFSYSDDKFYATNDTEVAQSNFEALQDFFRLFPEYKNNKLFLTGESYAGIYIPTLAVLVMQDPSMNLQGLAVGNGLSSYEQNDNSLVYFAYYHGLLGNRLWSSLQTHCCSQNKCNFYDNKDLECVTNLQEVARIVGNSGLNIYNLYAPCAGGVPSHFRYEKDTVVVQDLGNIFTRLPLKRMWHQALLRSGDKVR
T3 sequence (P10619 327-480 limits assumed): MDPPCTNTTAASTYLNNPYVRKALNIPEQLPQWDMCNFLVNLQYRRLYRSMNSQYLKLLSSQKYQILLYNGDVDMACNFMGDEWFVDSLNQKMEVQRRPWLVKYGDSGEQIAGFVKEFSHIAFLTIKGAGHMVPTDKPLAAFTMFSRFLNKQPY
Method: The reaction was studied under both pH 6.5 (to match CatA-catalyzed RDV reaction conditions with minimal acidic hydrolysis) and pH 5.5 (to mimic acidic lysosomal environment). CatA was initially activated following the manufacturer’s protocol. […] Threefold dilutions of compounds were prepared in 100% DMSO. The final DMSO concentration was kept constant at 1% (vol/vol). […] The slopes of the progress curves were used to measure reaction rates. Reaction rates were plotted as a function of inhibitor concentration, and the data were fit with a four-parameter logistic fit using GraphPad Prism software to yield IC50 values.
as §1

NHBE cells = assay: Effect of hydrolase inhibitors on GS-443902 formation from RDV in NHBE cells; type: cell-based, human; settings: coincubation with 1 μM RDV, 24 h, three donors
Method: Cells were harvested at 24 h after compound addition, and the GS-443902 levels were assessed by an LC-MS method.
NHBE cells (5 × 10^5) in 2 ml of BEGM media were seeded in each well of a 6-well plate and incubated overnight at 37°C and 5% CO2. […] Twenty-four hours post-compound addition, the cells were washed 3× with 1 ml of cold 1× Tris-HCl (pH 7.0)-buffered saline, and cells were harvested in 500 μl dry ice-cold extraction buffer (0.1% potassium hydroxide and 67 mM ethylenediamine tetra-acetic acid in 70% methanol, containing 0.5 μM chloro-ATP as internal standard) and transferred to a deep-well block on dry ice. The deep-well block was stored at −80°C until processing. At the time of harvest, two untreated wells for each donor were trypsinized, and the cell counts were determined. All compound combinations were tested in duplicate in cells from three donors.
Each NHBE sample was treated with 500 μl of dry ice-cold extraction buffer (0.1% potassium hydroxide and 67 mM ethylenediamine tetra-acetic acid in 70% methanol, containing 0.5 μM chloro-ATP as internal standard). The above solution was vortexed for 5 min and then centrifuged at 20,000 × g for 10 min. The supernatant was transferred to a clean 96-deep-well plate and then dried on an evaporator. Once dry, samples were reconstituted with 80 μl of 1 mM ammonium phosphate buffer (pH 7) and transferred to a 96-short-well plate for analysis. An aliquot of 10 μl was injected into a Sciex QTrap 6500+ liquid chromatography-tandem mass spectrometry (LC-MS/MS) system run under the multiple reaction monitoring (MRM) operation mode.
Standard calibration curves for NHBE were constructed based on pmol of compound per sample. […] Using the calibration curve, the amount of the metabolites was quantified in each sample, and the intracellular concentrations (pmol/million cells) were determined by dividing the value by the cell number in the sample.

CES1c = target: T4, CES1c (Homo sapiens, UniProt P23141); assay: CES1c-catalyzed hydrolysis of 4-NPA, inhibition by inhibitors; type: biochemical
T4 construct: purchased Corning Incorporated (Corning, NY); host or cells: baculovirus-infected insect cells (microsomal fraction, Supersomes)
T4 sequence (P23141 18-566 isoform P23141-3 limits assumed): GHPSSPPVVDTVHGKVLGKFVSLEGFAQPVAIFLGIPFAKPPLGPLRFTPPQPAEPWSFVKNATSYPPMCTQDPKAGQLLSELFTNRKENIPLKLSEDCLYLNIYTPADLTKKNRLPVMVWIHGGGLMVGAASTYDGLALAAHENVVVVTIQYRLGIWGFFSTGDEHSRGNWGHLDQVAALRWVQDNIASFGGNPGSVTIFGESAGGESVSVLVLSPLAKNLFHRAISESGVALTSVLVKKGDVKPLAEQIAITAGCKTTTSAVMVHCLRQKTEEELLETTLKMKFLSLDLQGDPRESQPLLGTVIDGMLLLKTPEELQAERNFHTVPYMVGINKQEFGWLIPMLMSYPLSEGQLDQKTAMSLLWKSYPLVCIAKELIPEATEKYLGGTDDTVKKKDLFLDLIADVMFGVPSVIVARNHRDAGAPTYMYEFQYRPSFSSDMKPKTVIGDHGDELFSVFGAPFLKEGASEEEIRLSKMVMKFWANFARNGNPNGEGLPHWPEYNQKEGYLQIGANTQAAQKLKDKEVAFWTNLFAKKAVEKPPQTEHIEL
Method: as §2, §1

CES2 = target: T5, CES2 (Homo sapiens, UniProt O00748); assay: CES2-catalyzed hydrolysis of 4-NPA, inhibition by inhibitors; type: biochemical
T5 construct: purchased Corning Incorporated (Corning, NY); host or cells: baculovirus-infected insect cells (microsomal fraction, Supersomes)
T5 sequence (O00748 27-559): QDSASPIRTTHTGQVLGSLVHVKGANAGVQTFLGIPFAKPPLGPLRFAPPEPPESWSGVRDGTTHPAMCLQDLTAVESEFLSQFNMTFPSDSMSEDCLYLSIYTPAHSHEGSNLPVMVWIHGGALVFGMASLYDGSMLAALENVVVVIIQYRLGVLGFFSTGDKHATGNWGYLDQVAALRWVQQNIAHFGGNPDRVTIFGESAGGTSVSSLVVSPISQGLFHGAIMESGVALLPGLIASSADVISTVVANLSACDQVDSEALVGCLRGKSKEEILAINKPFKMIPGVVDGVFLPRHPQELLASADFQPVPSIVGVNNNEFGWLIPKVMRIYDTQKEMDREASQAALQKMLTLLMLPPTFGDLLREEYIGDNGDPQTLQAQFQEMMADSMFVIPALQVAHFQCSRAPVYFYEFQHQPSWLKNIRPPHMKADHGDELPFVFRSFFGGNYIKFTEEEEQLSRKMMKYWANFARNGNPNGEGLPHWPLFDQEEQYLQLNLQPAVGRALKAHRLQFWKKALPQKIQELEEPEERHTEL
Method: as §2, §1

SARS-CoV-2 = assay: microbe, parasite or virus in culture; type: cell-based; settings: compound alone (plus DMSO), A549-hACE2 cells, 48 h
CatA [3] = tested on: CatA; parameters: method as in PMID 20801890, PMID 25870059; settings: published data ref 7, 9; cited from earlier work
[4] = A549-hACE2 cytotoxicity analysis; settings: human, A549-hACE2 cells
Method: The cytotoxicity of compounds was determined in A549-hACE2 cells in the following manner. A549-hACE2 cells (12,000 cells per well in medium containing 2% FBS) were plated into a black opaque 96-well plate (Corning). The next day, 3-fold serial dilutions of compounds were prepared in DMSO in a manner to normalize the DMSO concentration among all cell culture wells. The compounds were further diluted 500-fold in the culture medium containing 2% FBS. Spent medium from overnight incubation was aspirated, 100 μl of diluted compound solutions were added to each well, and cultures were returned to 37°C with 5% CO2. […] Luciferase signals were measured using an Envision microplate reader. The relative luciferase signals were calculated by normalizing the luciferase signals of the compound-treated groups to that of the DMSO-treated groups (set as 100%). The relative luciferase signal (y axis) versus the compound concentration (x axis) was plotted in software GraphPad Prism 8 (version 8). […] Three independent experiments were performed with technical duplicates.

HINT1 [5] = target: HINT1; parameters: method as in PMID 31503445; settings: previously reported by Shah et al. ref 17; read-out: dissociation constant [Kd], HINT1; cited from earlier work
[6] = tested on: cellular activation of sofosbuvir (SOF); assay: Effect of HINT1 inhibitors on cellular activation of sofosbuvir; type: cell-based; settings: data not shown
[7] = substrate RDV MetX, read-out: Inhibition (IC50) of enzyme activities, HINT1
[8] = substrate 4-NPA, read-out: Inhibition (IC50) of enzyme activities, CES1b
[9] = pH 5.5, fluorogenic peptide substrate, read-out: Inhibition (IC50) of enzyme activities, CatA pH 5.5
[10] = pH 6.5, fluorogenic peptide substrate, read-out: Inhibition (IC50) of enzyme activities, CatA pH 6.5
[11] = substrate 4-NPA, read-out: Inhibition (IC50) of enzyme activities, CES1c

T1 sequence (P49773 whole entry): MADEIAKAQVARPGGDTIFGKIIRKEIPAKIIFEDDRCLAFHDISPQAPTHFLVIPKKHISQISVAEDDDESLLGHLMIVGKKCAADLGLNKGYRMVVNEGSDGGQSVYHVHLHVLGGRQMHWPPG

Structure (SMILES) | IC50 (CES1) [µM] | IC50 (HINT1 [1]; [7]) [µM] | IC50 (CES1b; [8]) [µM] | IC50 (CatA [2]; [9]) [µM] | IC50 (CatA [2]; [10]) [µM] | Effect on GS-443902 formation in NHBE cells (NHBE cells) | IC50 (CES1c; [11]) [µM] | IC50 (CES2) [µM] | IC50 (HINT1 [1]) [µM] | EC50 (SARS-CoV-2) [µM] | IC50 (CES1b) [µM] | IC50 (CatA [2]; IC50 values range for CatA, range over pH 6.5 and pH 5.5) [µM] | IC50 (CatA [2]; Inhibition (IC50) of enzyme activities, CatA pH 5.5, pH 5.5, fluorogenic peptide substrate) [µM] | IC50 (CatA [2]; Inhibition (IC50) of enzyme activities, CatA pH 6.5, pH 6.5, fluorogenic peptide substrate) [µM] | IC50 (CatA [3]) [µM] | IC50 (CES1c) [µM] | CC50 at 48 h [4] [µM] | IC50 (CES2; substrate 4-NPA, read-out: Inhibition (IC50) of enzyme activities, CES2) [µM] | Kd (HINT1 [5]) [µM] | Effect on cellular activation of sofosbuvir (SOF) [6]
O=[N+]([O-])c1ccc(OP(=O)(O)Oc2ccc([N+](=O)[O-])cc2)cc1 [BNPP, bis(4-nitrophenyl)phosphate] | 0.11 | > 100 | 0.75 ± 0.12 | > 100 | > 100 | did not cause a significant change in GS-443902 formation | 14 ± 5.6 | – | – | – | – | – | – | – | – | – | – | – | – | –
CCC[C@H](NC(=O)[C@@H]1[C@H]2CCC[C@H]2CN1C(=O)[C@@H](NC(=O)[C@@H](NC(=O)c1cnccn1)C1CCCCC1)C(C)(C)C)C(=O)C(=O)NC1CC1 [Telaprevir] | – | – | – | – | – | dose-dependent inhibition of GS-443902 formation | – | > 100 | > 100 | > 50 | > 100 | 0.078 to 0.34 | 0.34 ± 0.06 | 0.078 ± 0.009 | 0.21 | > 100 | 29.2 | – | – | –
Nc1nc2c(ncn2[C@@H]2O[C@H](COC(=O)NCCc3c[nH]c4ccccc34)[C@@H](O)[C@H]2O)c(=O)[nH]1 [TrpGc] | – | 1.5 ± 0.5 | > 100 | > 100 | > 100 | neither of them significantly altered | > 100 | – | – | – | – | – | – | – | – | – | – | > 100 | 3.65 | neither TrpGc nor compound 7
